{
  "source": "patent US20050065219A1",
  "about": "“Treatment of demyelinating conditions” (priority 2003, published 2005)",
  "origin": "cited, not measured here",
  "key": {"[1]": {"conditions": "rats (Keilhoff et al. 1992)"}, "[2]": {"conditions": "clinical use for many years (Kornhuber et al. 1994)"}, "[3]": {"system": "cortical and retinal neuron cultures", "conditions": "cortical and retinal neuron cultures (Deyer et al. 1990)"}, "[4]": {"molecular_target": "PCP and MK-801 binding sites of the NMDA receptor (Homo sapiens, UniProt Q05586)", "conditions": "postmortem human frontal cortex, at therapeutic concentrations (Kornhuber et al. 1989)"}, "[5]": {"system": "nicotinic acetylcholine receptors", "conditions": "Masou et al. 1986"}, "[6]": {"system": "5-hydroxytryptamine 5-HT3 receptors", "conditions": "Reiser et al. 1988"}, "NMDA receptor channel": {"molecular_target": "NMDA receptor channel (Homo sapiens, UniProt Q05586)", "conditions": "Bormann 1989"}, "[7]": {"molecular_target": "brain membranes ([3H]dizocilpine site) (Homo sapiens, UniProt Q05586)", "conditions": "Chen et al. 1992"}},
  "data": [
    {"smiles": "CC12CC3CC(C)(C1)CC(N)(C3)C2", "note": "[memantine, 1-amino-3,5-dimethyladamantane]", "values": [
      {"measurement": "quinolic acid-induced hippocampal damage", "setting": "[1]", "result": "prevents"},
      {"measurement": "tolerability in clinical use", "setting": "[2]", "result": "well tolerated"},
      {"measurement": "protection from toxicity of glutamate, NMDA and HIV-1 coat protein gp120", "setting": "[3]", "result": "protects"},
      {"measurement": "binding to PCP and MK-801 binding sites of the NMDA receptor", "setting": "[4]", "result": "binds"},
      {"measurement": "block of nicotinic acetylcholine receptors", "setting": "[5]", "result": "blocks"},
      {"measurement": "block of 5-HT3 receptors", "setting": "[6]", "result": "blocks"},
      {"measurement": "antagonism of the NMDA receptor channel", "setting": "NMDA receptor channel", "result": "micromolar antagonist"},
      {"measurement": "[3H]dizocilpine binding to brain membranes", "setting": "[7]", "result": "inhibits"}
    ]}
  ]
}
